The values below come from patent US10100046B2, “Inhibitors of lysine specific demethylase-1” (Celgene Quanticel Research, Inc., priority 2014, dated 2018).

The structures appear in SMILES notation.

In one assay the test system is THP-1 (AML) cells. The experiment in a line: LSD1 CD11b Cellular Assay (flow cytometry). Format: cell-based. The conditions noted are these: Homo sapiens, 96 h; CD11b expression in THP-1 cells, 4 days. As to the method: To analyze LSD1 inhibitor efficacy in cells, a CD11b flow cytometry assay was performed. LSD1 inhibition induces CD11b expression in THP-1 (AML) cells which can be measured by flow cytometry. […] LSD1 test compounds were serially diluted in DMSO. The dilutions were added to each well accordingly to a final concentration of 0.2% DMSO. The cells were incubated at 37 degrees Celsius in 5% CO2 for 4 days. 250 μL of each well was transferred to a well in a 96 well round bottom plate. The plate was centrifuged at 1200 rpm at 4 degrees Celsius in a Beckman Coulter Alegra 6KR centrifuge for 5 minutes. The media was removed leaving the cells at the bottom of the wells. The cells were washed in 100 μL cold HBSS (Hank's Balanced Salt Solution) plus 2% BSA (Bovine Serum Albumin) solution and centrifuged at 1200 rpm at 4 degrees Celsius for 5 minutes. The wash was removed. […] The cells were centrifuged and washed two times in 100 μl HBSS plus 2% BSA. After the final spin the cells were resuspended in 100 μL HBSS plus 2% BSA containing 1 ug/mL DAPI (4′,6-diamidino-2-phenylindole). The cells were then analyzed by flow cytometry in a BD FACSAria machine. Cells were analyzed for CD11b expression. The percent of CD11b expressing cells for each inhibitor concentration was used to determine an IC50 curve for each compound analyzed.
Background: Flow cytometry measures light scatter and fluorescence of single cells or particles in a stream.

The next assay addresses full-length human LSD1 (Homo sapiens (Human), UniProt O60341). The assay can be described thus: In Vitro Enzyme Inhibition Assay—LSD-1 (TR-FRET). The class given is biochemical. The following applies: H3K4me1-biotin labeled peptide. As to the method:
This assay determines the ability of a test compound to inhibit LSD1 demethylase activity. E. coli expressed full-length human LSD1 (Accession number 060341) was purchased from Active Motif (Cat#31334).
The enzymatic assay of LSD1 activity is based on Time Resolved-Fluorescence Resonance Energy Transfer (TR-FRET) detection. The inhibitory properties of compounds to LSD1 were determined in 384-well plate format under the following reaction conditions: 0.1-0.5 nM LSD1, 50 nM H3K4me1-biotin labeled peptide (Anaspec cat #64355), 2 μM FAD in assay buffer of 50 mM HEPES, pH7.3, 10 mM NaCl, 0.005% Brij35, 0.5 mM TCEP, 0.2 mg/ml BSA. Reaction product was determined quantitatively by TR-FRET after the addition of detection reagent Phycolink Streptavidin-allophycocyanin (Prozyme) and Europium-anti-unmodified histone H3 lysine 4 (H3K4) antibody (PerkinElmer) in the presence of LSD1 inhibitor such as 1.8 mM of Tranylcypromine hydrochloride (2-PCPA) in LANCE detection buffer (PerkinElmer) to final concentration of 12.5 nM and 0.25 nM respectively.
The assay reaction was performed according to the following procedure: 2 μL of the mixture of 150 nM H3K4me1-biotin labeled peptide with 2 μL of 11-point serial diluted test compound in 3% DMSO were added to each well of plate, followed by the addition of 2 μL of 0.3 nM LSD1 and 6 μM of FAD to initiate the reaction. The reaction mixture was then incubated at room temperature for one hour, and terminated by the addition of 6 μL of 1.8 mM 2-PCPA in LANCE detection buffer containing 25 nM Phycolink Streptavidin-allophycocyanin and 0.5 nM Europium-anti-unmodified H3K4 antibody. Enzymatic reaction is terminated within 15 minutes if 0.5 LSD1 enzyme is used in the plate. Plates were read by EnVision Multilabel Reader in TR-FRET mode (excitation at 320 nm, emission at 615 nm and 665 nm) after 1 hour incubation at room temperature. A ratio was calculated (665/615) for each well and fitted to determine inhibition constant (IC50).
The ability of the compounds disclosed herein to inhibit LSD1 activity was quantified and the respective IC50 value was determined. Table 3 provides the IC50 values of various substituted heterocyclic compounds disclosed herein.

On to `Cn1ncc2cc(-c3sc(N4CCC5(CCNC5)CC4)nc3-c3ccc(C#N)cc3)ccc21` [Example 5, 4-(2-{2,8-diazaspiro[4.5]decan-8-yl}-5-(1-methyl-1H-indazol-5-yl)-1,3-thiazol-4-yl)benzonitrile], for which the IC50 is 100 to 1000 nM with THP-1 (AML) cells and no more than 100 nM against full-length human LSD1.

Turning to `Cn1cnc2cc(-c3sc(C(=O)N4CCC[C@@H](N)C4)nc3-c3ccc(C#N)cc3)cnc21` [Example 20, 4-{2-[(3R)-3-aminopiperidine-1-carbonyl]-5-{3-methyl-3H-imidazo[4,5-b]pyridin-6-yl}-1,3-thiazol-4-yl}benzonitrile], the figures for the IC50 in the assay on THP-1 (AML) cells and on full-length human LSD1 were 100 to 1000 nM and no more than 100 nM, respectively.

As to `Cn1cnc2cc(-c3sc(N4CCC(N)CC4)nc3-c3ccc(C#N)cc3)cnc21` [Example 9, 4-[2-(4-aminopiperidin-1-yl)-5-{3-methyl-3H-imidazo[4,5-b]pyridin-6-yl}-1,3-thiazol-4-yl]benzonitrile], the half-maximal inhibitory concentration (IC50) was less than 100 nM in the assay on THP-1 (AML) cells and no more than 100 nM against full-length human LSD1.

For the compound `Cn1ncc2cc(-c3sc(N4CC[C@@H]5CNC[C@@H]5CC4)nc3-c3ccc(C#N)cc3)cnc21` [Example 11, cis-4-(2-{decahydropyrrolo[3,4-d]azepin-6-yl}-5-{1-methyl-1H-pyrazolo[3,4-b]pyridin-5-yl}-1,3-thiazol-4-yl)benzonitrile], the IC50 in the assay on THP-1 (AML) cells was less than 100 nM; against full-length human LSD1 it was no more than 100 nM.

On to `N#Cc1ccc(-c2nc(N3CCC(N)CC3)cc(=O)n2-c2ccc(C3CC3)cc2)cc1F` [Example 26, 4-[4-(4-Aminopiperidin-1-yl)-1-(4-cyclopropylphenyl)-6-oxopyrimidin-2-yl]-2-fluorobenzonitrile], for which the values for the half-maximal inhibitory concentration (IC50) with THP-1 (AML) cells and against full-length human LSD1 were less than 100 nM and no more than 100 nM, respectively.

With `Cn1cnc2cc(-c3sc(N4CCC(N)CC4)nc3-c3ccc(C#N)cc3)ccc21` [Example 8, 4-[2-(4-aminopiperidin-1-yl)-5-(1-methyl-1H-1,3-benzodiazol-5-yl)-1,3-thiazol-4-yl]benzonitrile], the values for the IC50 in the assay with THP-1 (AML) cells and against full-length human LSD1 were less than 100 nM and no more than 100 nM, respectively.

On to `N#Cc1ccc(-c2nc(N3CCC4CNCC4C3)cc(=O)n2-c2ccc(C3CC3)cc2)cc1F` (centres unmarked) [Example 28, 4-[4-(1,2,3,3a,4,6,7,7a-octahydropyrrolo[3,4-c]pyridin-5-yl)-1-(4-cyclopropylphenyl)-6-oxopyrimidin-2-yl]-2-fluorobenzonitrile], for which the half-maximal inhibitory concentration (IC50) with THP-1 (AML) cells was less than 100 nM; at full-length human LSD1 it was no more than 100 nM.

A word on the IC50: it is the concentration needed to halve the response being measured.
